Entries after “also recorded” stand apart in the source; their conditions may differ. Non-standard residues stand in square brackets, D forms with d. Residues, ends and D or L forms follow the SMILES beside them.
Experiments:
[1] = tested on: transfected HEK-293 cells; experiment: c-Myc overexpression, Annexin V-APC/PI apoptosis assay; assay type: cell-based, human; conditions: 10 μM, 48 h
Description: (§1) The extent of apoptosis was analyzed by detecting surface expression of phosphatidylserine on apoptotic cells using an Annexin V-APC/PI dual staining apoptosis detection kit I (BD Biosciences) according to the manufacturer's protocol. Following treatment of PC-3 cells with 10 μM [D-Trp]CJ-15,208 or vehicle for 24 h or 48 h, the cells were collected, washed twice with cold PBS, and resuspended in 1× binding buffer at a concentration of 1×10^6 cells/mL. Cell suspension (100 μL) was transferred to a 5 ml culture tube, and 5 μL of Annexin V-APC and 25 μL of PI (50 μg/mL) were added. The cells were incubated for 15 min at room temperature in the dark with gentle vortexing, 400 μL of 1× binding buffer was then added to each sample, and the samples were analyzed using a Beckman-Coulter MoFlo XDP flow cytometer within one hour. The number of viable, apoptotic and necrotic cells were quantified using FlowJo v10.0.7. The apoptosis fraction (%) was calculated as (number of apoptotic cells/the number of total cells observed)×100%.^38
Forced expression of c-Myc in HEK 293 cells was performed using X-temeGENE HP #6366244001 (Sigma). Cells were cultured in antibiotic free DMEM supplemented with 10% FBS and transfected with pcDNA3-HA-HA-c-Myc #74164 (Addgene). Empty-vector pcDNA3-EV was used as a control. […] Samples were analyzed using a BD FACSCanto-II cell analyzer and quantified in FlowJo v10.2. […]

[2] = tested on: PC-3 cells; experiment: Annexin V-APC/PI apoptosis assay; assay type: cell-based, human; conditions: PC-3, 10 μM
Description: as §1
(§2) Each experiment was performed in triplicate unless otherwise stated in the figure legend. GraphPad Prism 5 was used to determine IC50 values. Data represent the mean value+/−SEM. Compound vs. vehicle treated cells in the cell cycle phase and apoptosis experiments (FIGS. 5-8) were compared using the student's t-test, with a two-tailed, unpaired method, using the Prism software. The effects of compound vs. vehicle treatment on protein levels (FIG. 10) were evaluated by one-way ANOVA with Dunnett's test for multiple comparisons.

[3] = tested on: HEK cells; experiment: Cell proliferation assay (WST-1); assay type: cell-based, human
Description: Human prostate cancer PC-3 cells were cultured and maintained in EMEM (ATCC), non-prostate HEK (human embryonic kidney) cells were cultured in DMEM, human prostate cancer DU145, LNCaP, 22Rv1 cells were cultured in RPMI 1640 (ATCC), and normal BPH-1 prostate cells and prostate cancer C4-2 cell line were cultured in RPMI 1640 (ATCC), all containing 10% fetal bovine serum (Atlanta Biologicals) and 1% penicillin/streptomycin (Invitrogen). Cells were grown at 37° C. in humidified air with 5% CO2 and passaged every fourth to fifth day following trypsinization with trypsin/EDTA (Invitrogen).^16
PC-3, LNCaP, DU 145, 22Rv1, C4-2, BPH-1, and HEK cells were grown to a density of 2000 cells/well in 96 well plates and treated with [D-Trp]CJ-15,208 or other peptides for 24-72 h in duplicate. Media containing [D-Trp]CJ-15,208 was changed every 24 h. The proliferation of treated cells was determined using the cell proliferation reagent WST-1 (Roche) per the manufacturer's instructions and compared to […] control cells in 1% DMSO in media. After treatment with compound 10 μL of the reagent was added to the well in 100 μL culture media, and the cells incubated at 37° C. for 30 min. The absorbance of the media in each well was measured at […] using a plate reader (BioTek). The percentage cell proliferation was normalized to vehicle treated control cells calculated as: (mean absorbance of sample/mean absorbance of control cells)×100.^38
as §2

[4] = tested on: siRNA-transfected PC-3 cells; experiment: c-Myc knockdown, Annexin V-APC/PI apoptosis assay; assay type: cell-based, human; conditions: 10 μM, 48 h
Description: as §1
PC-3 cells were seeded at a density of 2×10^6 cells in 10 cm plates and grown to 75-85% confluence in EMEM supplemented with 10% FBS and penicillin/streptomycin. […] Samples were analyzed using a BD FACSCanto-II cell analyzer and quantified in FlowJo v10.2. […]

[5] = mice, after systemic administration; cited from earlier work

**Q.** Which early apoptosis ([1]; HEK-293 overexpressing c-Myc) does the source give for `O=C1N[C@H](Cc2c[nH]c3ccccc23)C(=O)N[C@@H](Cc2ccccc2)C(=O)N2CCC[C@@H]2C(=O)N[C@H]1Cc1ccccc1` [[D-Trp]CJ-15,208, cyclo[Phe-D-Pro-Phe-D-Trp]] (cyclo(F[dP]F[dW])) here?
**A.** significant increase in early apotosis

**Q.** What about the early apoptosis ([1]; HEK-293 transfected with empty vector) of the same molecule?
**A.** no significant difference

**Q.** And the “number of cells in early or late apoptosis” value ([2]; 24 h)?
**A.** No significant change

**Q.** And the “increase of number of cells in early apoptosis vs. vehicle” value ([2]; 48 h)?
**A.** 10 fold

**Q.** What about the “increase of number of cells in late apoptosis vs. vehicle” value ([2]; 48 h) of the same molecule?
**A.** 3 fold

**Q.** And the “IC50, cell growth” value ([3]; 48 h)?
**A.** No effect

**Q.** What about the “IC50, cell growth” value ([3]; 72 h) of the same molecule?
**A.** No effect

**Q.** What about the “effect on cell proliferation / cytotoxicity” value ([3]; time not stated) of the same molecule?
**A.** No cytotoxicity was observed; also recorded: did not prevent cell proliferation

**Q.** And the early apoptosis ([4]; PC-3 transfected with nontargeting siRNA)?
**A.** significantly increased early apoptosis

**Q.** What about the early apoptosis ([4]; PC-3 transfected with siRNA against c-Myc) of the same molecule?
**A.** did not significantly affect

**Q.** What about the blood-brain barrier penetration [5] of the same molecule?
**A.** appear to penetrate the blood-brain barrier

Reference: US11510964B2, “Macrocyclic peptides to decrease c-Myc protein levels and reduce cancer cell growth” (University of Kansas, priority 2017, dated 2022)
